Assay results as given in PMC5047629, “Synthesis, Pharmacological Profile and Docking Studies of New Sulfonamides Designed as Phosphodiesterase-4 Inhibitors” (PLoS ONE, 2016).

Assays:
PDE4B = target: T1, PDE4B (Homo sapiens, UniProt Q07343); experiment: PDE4B inhibition, IMAP fluorescence polarization protocol; format: biochemical
T1 construct: purchased MDS PHARMA
Description: (§1) The enzymatic reactions were carried at room temperature in a 96-well black plate by co-incubating 25 μL of 200 nM FAM-cAMP (R7513), 5 μL of putative inhibitory compounds and 20 μL of the PDE4 isoform dissolved in assay buffer (R7364) for 1 h. All enzymes were obtained from human recombinant sources (MDS PHARMA), whereas the other reagents were purchased from Molecular Devices. […] PDE4 inhibitors were dissolved in dimethyl sulfoxide (DMSO) at a final concentration of 0.1%.
(§2) The inhibitory activities of the new sulfonamide derivatives were evaluated for their selectivity against the four isoforms of human PDE4, i.e. PDE4A, PDE4B, PDE4C, and PDE4D, using an IMAP-FP protocol.

A/J mice [1] = experiment: Murine model of asthma with 4 weekly OVA provocations (days 14, 21, 28, 35), interventional treatment; format: in vivo; conditions: LASSBio-448 100 mg/Kg oral
Description: Sensitization was performed by means of a subcutaneous injection of 50 μg ovalbumin (OVA) (grade V; Sigma-Aldrich, St. Louis, MO) adsorbed to 5 mg of Al(OH)3 in 0.2 mL of sterile 0.9% NaCl (saline) at days 0 and 14. Intranasal OVA provocations (25 μg /25 μL saline) were performed at 19 and 20 days post-sensitization under isofluorane volatile anaesthesia (Cristalia, São Paulo, Brazil). Alternatively, sensitization as described above were done at days 0 and 7, while the OVA provocations were carried out at days 14, 21, 28 and 35 [39]. Negative control groups were represented by sensitized mice in which allergen was replaced by saline as a challenge. Treatments were done orally 1 h before provocations. Test compounds were dissolved in saline containing 0.2% Tween 80. All solutions were freshly prepared immediately before use. Analyses were performed 24 h after the last provocation.
(§3) Airflow and transpulmonary pressure were recorded with a Buxco pulmonary mechanics processing system (Buxco Electronics, Sharon, CT), which calculated resistance (cmH2O.s/ml) and dynamic lung compliance (mL/cmH2O) in each breath cycle. Elastance was calculated as the inverse of compliance values. Mice were anesthetized with nembutal (60 mg/kg), and the neuromuscular activity was blocked with bromide pancuronium (1 mg/kg). Animals were allowed to stabilize for 5 min and increasing concentrations of methacholine (3–27 mg/mL) were aerosolized for 5 min each. Baseline pulmonary parameters were assessed with aerosolized phosphate buffer solution (PBS).
The EPO activity present in lung tissue was determined with a colorimetric assay as described by Strath et al. (1985), with minor modifications. Briefly, the lungs were cannulated and perfused with saline/EDTA (20 mM). Then, lung samples were homogenized in buffer solution containing 0.5% HBSS (Hank´s balanced solution, pH 7.4; Sigma Chemical Co.) using a tissue homogenizer (T25 ultra-Tirrax). Samples were centrifuged at 1300 xg for 10 min at 4°C. Red blood cells were removed by hypotonic and hypertonic lysis. The suspended cells were then centrifuged again at 1300 xg for 10 min at 4°C. The pellet was then suspended in a solution of HBSS containing 0.5% of HTAB (hexadecyltrimethylamonium bromide; Sigma Chemical Co.) (pH 7.4). This suspension was subjected to heat shock for lysing the cells in three cycles freeze/thawed. At the end, the supernatants were collected, centrifuged at 12000 rpm for 15 min at 4°C and assayed spectrophotometrically for EPO determination. Fifty μl of the samples were placed, and then 50 μl of the substrate (1.5 mM o-phenylenediamine and 6.6 mM hydrogen peroxide in 0.05 mM Tris-HCl buffer, pH 8.0) was added and, after a 30 min incubation at room temperature, 50 μl of H2SO4 (4M) was added to stop the reaction. The optical density reading was performed on the SpectraMax M5 spectrophotometer (Molecular Devices) at a wavelength of 492 nm.
Right lungs tissue samples from saline- and OVA-exposed mice were homogenized in PBS containing 0.05% Triton X-100 and a protease inhibitor cocktail (Complete®, Hoffmann-La Roche Ltd, Basel, Switzerland). After centrifugation at 13000xg for 10 min and 4°C, the levels of IL-13, IL-5, IL-4 and eotaxin-2 were quantified in the supernatant, using commercially available ELISA kits (DuoSet; R&D Systems, Minneapolis, MN, USA). The results were expressed as picograms of cytokine per right lung.

A/J mice [2] = experiment: LPS-induced lung inflammation and airway hyper-reactivity; format: in vivo; conditions: LASSBio-448 2.5 and 10 mg/kg oral, cilomilast 1 mg/kg oral, 1 h before LPS, 24 h post-challenge
Description: A/J mice were anesthetized with isoflurane aerosol and then challenged with LPS (25μg/25 μL) or phosphate buffered solution (PBS) by intranasal instillation as reported. The analyses were performed 24 h after stimulation. Treatment with LASSBio-448 (2.5–10 mg/kg/mice) or cilomilast (1 mg/kg) was performed orally, 1 h before LPS exposure. LASSBio-448 was dissolved in 0.2% Tween 80, while cilomilast was dissolved in 1 M NaOH and further neutralized with 1 N HCl, before adjusting the final volume with 0.9% NaCl solution (saline). The substances were dissolved immediately before use.
as §3
The MPO activity present in the lung tissue was colorimetrically determined as described by Hirano (1996), with minor changes. Briefly, after lung perfusion with 20 mM EDTA in 0.9% saline, lung samples were homogenized in Hank´s balanced solution (HBSS) at pH 7.4. The homogenates were centrifuged for 10 min at 1300 xg and 4°C. Red blood cells were removed by hypotonic and hypertonic lysis and suspended cells were re-centrifuged as described above. The pellet was then suspended in HBSS at pH 7.4 containing 0.5% hexadecyltrimethyl ammonium bromide (HTAB). The homogenates were centrifuged for 30 min at 12500 xg and 4°C. The supernatants were then collected and incubated with 0.167 mg/mL of ortho-dianisidine dihydrochloride for 15 min at 37°C, after which 0.0006% H2O2 in 50 mM phosphate buffer at pH 6 was added. The reaction was stopped 10 min later by adding 50 μL of 1% sodium azide. The measurement was done at 460 nm using the SpectraMax M5 microplate reader (Molecular Devices).

PDEs5-11 = experiment: PDE selectivity profile evaluated by CEREP; format: biochemical, human; conditions: 10 μM; data not shown
Description: The selectivity profile of compound 6a (LASSBio-448) toward the human PDE1, PDE2, PDE5-PDE8, PDE10 and PDE11 was evaluated by CEREP.

PDE4A = target: T2, PDE4A (Homo sapiens, UniProt P27815); experiment: PDE4A inhibition, IMAP fluorescence polarization protocol; format: biochemical
T2 construct: purchased MDS PHARMA
T2 sequence (P27815 1-647 isoform P27815-4): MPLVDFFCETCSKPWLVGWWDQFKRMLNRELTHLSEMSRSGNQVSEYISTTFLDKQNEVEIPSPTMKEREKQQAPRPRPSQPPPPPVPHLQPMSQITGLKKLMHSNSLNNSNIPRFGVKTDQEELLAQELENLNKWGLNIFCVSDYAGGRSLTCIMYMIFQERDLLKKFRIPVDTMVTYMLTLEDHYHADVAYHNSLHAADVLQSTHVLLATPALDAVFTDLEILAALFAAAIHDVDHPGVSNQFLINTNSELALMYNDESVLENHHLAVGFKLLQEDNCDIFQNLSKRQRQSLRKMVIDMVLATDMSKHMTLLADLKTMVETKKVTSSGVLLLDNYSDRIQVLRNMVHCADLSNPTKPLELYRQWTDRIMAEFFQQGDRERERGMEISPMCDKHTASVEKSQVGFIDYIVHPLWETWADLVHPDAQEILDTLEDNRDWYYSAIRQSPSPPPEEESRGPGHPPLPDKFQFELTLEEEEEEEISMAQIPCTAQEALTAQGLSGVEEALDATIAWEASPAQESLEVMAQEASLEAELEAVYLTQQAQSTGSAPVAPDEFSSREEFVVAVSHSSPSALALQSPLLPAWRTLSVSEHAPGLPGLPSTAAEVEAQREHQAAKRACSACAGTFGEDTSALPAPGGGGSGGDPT
Description: as §1, §2

[3] = 1 μM, mean ± SEM, 3 experiments
[4] = recombinant enzyme, mean ± SEM of three measurements
[5] = rolipram 10 mg/Kg oral, right lung, 24 h after last challenge, vs vehicle, Fig 8

T1 sequence (Q07343 whole entry): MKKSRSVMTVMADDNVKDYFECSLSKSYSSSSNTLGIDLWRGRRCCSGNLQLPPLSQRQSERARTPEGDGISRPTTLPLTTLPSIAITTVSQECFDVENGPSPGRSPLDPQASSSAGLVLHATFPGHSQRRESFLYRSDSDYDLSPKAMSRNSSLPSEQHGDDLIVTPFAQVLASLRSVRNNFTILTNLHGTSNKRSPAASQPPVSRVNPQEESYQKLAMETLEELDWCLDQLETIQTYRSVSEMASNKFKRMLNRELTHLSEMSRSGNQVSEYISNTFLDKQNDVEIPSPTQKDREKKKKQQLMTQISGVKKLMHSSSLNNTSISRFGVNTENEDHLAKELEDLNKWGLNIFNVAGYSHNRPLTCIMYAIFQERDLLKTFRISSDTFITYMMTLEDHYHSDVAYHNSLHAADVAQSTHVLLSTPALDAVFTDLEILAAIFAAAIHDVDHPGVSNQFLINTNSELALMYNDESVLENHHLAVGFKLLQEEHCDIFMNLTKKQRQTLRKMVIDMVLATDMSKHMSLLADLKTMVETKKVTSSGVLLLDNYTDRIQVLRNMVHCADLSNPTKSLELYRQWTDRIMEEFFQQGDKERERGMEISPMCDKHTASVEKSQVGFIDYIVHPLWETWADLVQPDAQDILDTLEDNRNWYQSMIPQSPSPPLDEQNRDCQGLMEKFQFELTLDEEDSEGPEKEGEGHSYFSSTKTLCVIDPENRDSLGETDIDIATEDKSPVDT

Compound: COc1ccc(CCNS(=O)(=O)c2cc3c(cc2C)OCO3)cc1OC [6a (LASSBio-448), N-(3,4-dimethoxyphenethyl)-6-methylbenzo[d][1, 3]dioxole-5-sulfonamide]
- PDE4B1 inhibition (PDE4B; [3]): able to inhibit
- inhibition at 1 µM (PDE4B; 1 μM, mean ± SEM, 3 experiments, read-out: PDE4B1 inhibition): 31 ± 1.1%
- IC50 (PDE4B; [4]): 1400 ± 90 nM
- extracellular matrix deposition (histology) (A/J mice [1]; interventional, Fig 6): sensitive to the interventional treatment
- mucus exacerbation (histology) (A/J mice [1]; interventional, Fig 6): sensitive to the interventional treatment
- airway hyper-reactivity to methacholine, airway resistance (A/J mice [1]; rolipram 10 mg/Kg oral, Fig 7A): equally effective in inhibiting
- airway hyper-reactivity to methacholine, lung elastance (A/J mice [1]; rolipram 10 mg/Kg oral, Fig 7B): equally effective in inhibiting
- IL-4 level in lung tissue (A/J mice [1]; [5]): reduction in the levels
- IL-5 level in lung tissue (A/J mice [1]; [5]): reduction in the levels
- IL-13 level in lung tissue (A/J mice [1]; [5]): reduction in the levels
- eotaxin-2 level in lung tissue (A/J mice [1]; [5]): reduction in the levels
- allergen-induced eosinophil accumulation in the lung tissue (eosinophil peroxidase) (A/J mice [1]; rolipram 10 mg/kg oral, at third and fourth weeks of challenge, Fig 5): impair the progress
- LPS-induced airway hyper-reactivity (lung elastance after methacholine 3–27 mg/ml) (A/J mice [2]; Fig 9A): dose-dependently prevented
- neutrophil infiltration into the lung tissue (MPO activity) (A/J mice [2]; Fig 9B): marked reduction
- inhibition of PDEs5-11 (PDEs5-11): unable to inhibit
- PDE4A1A inhibition (PDE4A; [3]): able to inhibit
- inhibition at 1 µM (PDE4A; 1 μM, mean ± SEM, 3 experiments, read-out: PDE4A1A inhibition): 36.5 ± 0.7%
- IC50 (PDE4A; [4]): 700 ± 70 nM
